Where two headings read alike, the source gives them in different places.
How the values were obtained:
Assay in all cases: KINOMEscan competitive binding
JAK1(JH2) = target: T1, JAK1(JH2) (Homo sapiens, UniProt P23458)
T1 construct: JAK1(JH2); purchased DiscoverX (KINOMEscan)
Description: (§1) The kinases were expressed as fusions to T7 bacteriophage. This is a sensitive, competitive binding assay where test compounds were used to displace immobilized ATP-site binding probe ligands from kinases of interest. The amount of kinase that remained bound to the immobilized probe ligands on the solid support was quantified. Percentage inhibition data were was plotted on kinome trees using the web-based tool KinMap (http://www.kinhub.org/kinmap) ([60]).

BIKE = target: T2, BIKE (Homo sapiens, UniProt Q9NSY1)
T2 construct: purchased DiscoverX (KINOMEscan)
T2 sequence (Q9NSY1 whole entry): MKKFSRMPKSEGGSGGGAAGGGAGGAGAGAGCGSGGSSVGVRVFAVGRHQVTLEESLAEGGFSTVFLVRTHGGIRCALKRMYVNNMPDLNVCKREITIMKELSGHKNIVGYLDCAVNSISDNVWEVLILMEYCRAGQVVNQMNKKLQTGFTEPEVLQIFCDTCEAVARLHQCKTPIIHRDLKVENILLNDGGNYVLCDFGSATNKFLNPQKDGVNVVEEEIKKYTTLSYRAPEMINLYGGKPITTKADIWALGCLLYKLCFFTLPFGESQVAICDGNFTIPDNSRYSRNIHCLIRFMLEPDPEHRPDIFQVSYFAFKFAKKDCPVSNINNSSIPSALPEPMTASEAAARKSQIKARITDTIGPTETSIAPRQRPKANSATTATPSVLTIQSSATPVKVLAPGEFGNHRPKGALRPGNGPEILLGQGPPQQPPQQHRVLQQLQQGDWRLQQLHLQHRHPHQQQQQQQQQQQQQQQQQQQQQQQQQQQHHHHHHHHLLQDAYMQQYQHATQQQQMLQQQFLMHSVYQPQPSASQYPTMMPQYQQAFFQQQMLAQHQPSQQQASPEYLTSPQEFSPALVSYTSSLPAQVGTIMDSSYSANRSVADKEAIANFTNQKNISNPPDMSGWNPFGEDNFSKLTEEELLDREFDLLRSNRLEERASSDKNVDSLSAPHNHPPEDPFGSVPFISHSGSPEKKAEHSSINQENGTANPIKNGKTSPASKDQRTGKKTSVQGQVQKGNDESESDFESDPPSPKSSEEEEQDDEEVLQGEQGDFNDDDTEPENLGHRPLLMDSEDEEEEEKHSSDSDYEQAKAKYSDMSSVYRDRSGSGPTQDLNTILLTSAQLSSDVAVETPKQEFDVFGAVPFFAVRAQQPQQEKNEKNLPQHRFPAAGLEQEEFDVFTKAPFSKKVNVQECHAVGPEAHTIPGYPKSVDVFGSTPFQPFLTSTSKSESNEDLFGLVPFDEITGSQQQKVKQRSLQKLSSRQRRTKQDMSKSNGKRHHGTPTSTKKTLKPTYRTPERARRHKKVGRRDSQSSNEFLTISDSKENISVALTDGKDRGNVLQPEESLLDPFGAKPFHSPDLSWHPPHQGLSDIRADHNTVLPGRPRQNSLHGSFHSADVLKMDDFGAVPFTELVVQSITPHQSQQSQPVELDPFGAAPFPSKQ
Description: as §1

FLT1 = target: T3, FLT1 (Homo sapiens, UniProt P17948); conditions: for inhibition at 10 µM: n=1, kinase FLT1, read-out: Percent inhibition FLT1
T3 construct: purchased DiscoverX (KINOMEscan)
T3 sequence (P17948 27-1338): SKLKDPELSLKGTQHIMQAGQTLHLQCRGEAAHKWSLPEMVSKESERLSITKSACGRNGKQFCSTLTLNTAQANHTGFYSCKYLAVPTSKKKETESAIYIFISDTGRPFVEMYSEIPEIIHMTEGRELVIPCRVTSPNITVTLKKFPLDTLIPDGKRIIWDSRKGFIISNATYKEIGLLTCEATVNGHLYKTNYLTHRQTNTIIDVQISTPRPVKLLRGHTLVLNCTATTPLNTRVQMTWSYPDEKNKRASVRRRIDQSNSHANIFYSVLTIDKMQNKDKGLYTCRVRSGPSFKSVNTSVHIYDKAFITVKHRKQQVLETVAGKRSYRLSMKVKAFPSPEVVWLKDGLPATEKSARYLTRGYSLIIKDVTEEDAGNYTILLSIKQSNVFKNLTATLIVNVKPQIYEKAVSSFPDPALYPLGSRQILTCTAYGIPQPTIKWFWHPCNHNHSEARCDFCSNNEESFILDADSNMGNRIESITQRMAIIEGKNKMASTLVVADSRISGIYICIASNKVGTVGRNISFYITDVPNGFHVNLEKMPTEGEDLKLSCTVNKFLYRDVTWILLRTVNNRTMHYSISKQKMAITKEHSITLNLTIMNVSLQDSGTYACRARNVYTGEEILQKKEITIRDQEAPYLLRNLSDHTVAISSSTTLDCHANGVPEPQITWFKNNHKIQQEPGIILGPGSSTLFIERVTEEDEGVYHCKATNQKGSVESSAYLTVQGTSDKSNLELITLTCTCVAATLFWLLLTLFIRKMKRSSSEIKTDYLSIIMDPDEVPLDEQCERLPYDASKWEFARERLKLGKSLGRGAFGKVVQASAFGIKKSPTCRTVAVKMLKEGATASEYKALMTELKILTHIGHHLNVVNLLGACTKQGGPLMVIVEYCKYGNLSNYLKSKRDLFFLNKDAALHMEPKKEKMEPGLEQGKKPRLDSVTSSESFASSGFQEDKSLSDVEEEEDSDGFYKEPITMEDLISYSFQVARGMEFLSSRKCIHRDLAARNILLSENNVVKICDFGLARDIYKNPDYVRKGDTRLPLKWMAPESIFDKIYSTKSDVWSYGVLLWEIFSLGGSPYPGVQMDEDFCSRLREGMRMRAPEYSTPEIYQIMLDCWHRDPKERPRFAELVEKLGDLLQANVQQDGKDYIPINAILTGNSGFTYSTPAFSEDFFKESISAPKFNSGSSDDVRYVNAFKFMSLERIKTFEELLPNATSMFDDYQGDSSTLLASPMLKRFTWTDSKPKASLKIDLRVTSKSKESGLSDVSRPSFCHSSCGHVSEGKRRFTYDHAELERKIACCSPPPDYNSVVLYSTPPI
Description: as §1

Aurora kinase A = target: T4, Aurora kinase A (Homo sapiens, UniProt O14965)
T4 construct: purchased DiscoverX (KINOMEscan)
T4 sequence (O14965 1-403): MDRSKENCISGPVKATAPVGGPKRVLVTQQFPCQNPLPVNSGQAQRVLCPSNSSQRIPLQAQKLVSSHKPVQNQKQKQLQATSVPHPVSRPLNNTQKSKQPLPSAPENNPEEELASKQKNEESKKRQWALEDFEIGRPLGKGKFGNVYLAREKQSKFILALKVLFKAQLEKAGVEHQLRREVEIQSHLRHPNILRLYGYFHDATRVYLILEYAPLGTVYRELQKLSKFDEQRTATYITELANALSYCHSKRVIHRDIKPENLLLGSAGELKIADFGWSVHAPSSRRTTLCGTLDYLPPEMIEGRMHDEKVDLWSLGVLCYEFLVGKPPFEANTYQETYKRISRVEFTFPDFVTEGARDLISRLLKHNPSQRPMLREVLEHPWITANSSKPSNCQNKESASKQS
Description: as §1

MERTK = target: T5, MERTK (Homo sapiens, UniProt Q12866)
T5 construct: purchased DiscoverX (KINOMEscan)
T5 sequence (Q12866 21-999): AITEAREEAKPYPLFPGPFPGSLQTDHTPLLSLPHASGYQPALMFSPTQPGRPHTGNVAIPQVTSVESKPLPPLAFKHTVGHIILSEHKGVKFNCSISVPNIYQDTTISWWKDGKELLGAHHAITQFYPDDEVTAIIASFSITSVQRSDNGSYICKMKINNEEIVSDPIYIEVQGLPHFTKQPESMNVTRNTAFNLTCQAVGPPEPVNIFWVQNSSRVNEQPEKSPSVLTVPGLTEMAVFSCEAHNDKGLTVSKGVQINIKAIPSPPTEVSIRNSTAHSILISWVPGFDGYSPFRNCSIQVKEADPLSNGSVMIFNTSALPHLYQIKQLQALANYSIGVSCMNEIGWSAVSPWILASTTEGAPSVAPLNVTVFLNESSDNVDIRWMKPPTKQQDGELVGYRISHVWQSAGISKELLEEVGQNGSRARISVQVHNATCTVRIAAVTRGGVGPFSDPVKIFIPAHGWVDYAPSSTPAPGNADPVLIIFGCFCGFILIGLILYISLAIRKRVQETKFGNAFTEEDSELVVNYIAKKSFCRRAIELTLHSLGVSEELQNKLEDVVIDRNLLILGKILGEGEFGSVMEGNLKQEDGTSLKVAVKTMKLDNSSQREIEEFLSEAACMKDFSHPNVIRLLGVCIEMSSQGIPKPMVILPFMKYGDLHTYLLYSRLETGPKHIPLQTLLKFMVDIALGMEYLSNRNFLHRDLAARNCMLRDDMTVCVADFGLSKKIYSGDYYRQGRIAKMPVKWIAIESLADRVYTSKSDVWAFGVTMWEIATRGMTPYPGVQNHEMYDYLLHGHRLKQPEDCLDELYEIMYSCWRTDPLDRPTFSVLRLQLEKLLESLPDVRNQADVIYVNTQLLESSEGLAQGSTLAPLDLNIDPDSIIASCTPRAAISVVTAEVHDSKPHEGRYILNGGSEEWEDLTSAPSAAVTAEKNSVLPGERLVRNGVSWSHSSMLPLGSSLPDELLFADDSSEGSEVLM
Description: as §1

PTK2 = target: T6, PTK2 (Homo sapiens, UniProt Q05397); conditions: n=1, read-out: Percent inhibition, PTK2
T6 construct: purchased DiscoverX (KINOMEscan)
T6 sequence (Q05397 whole entry): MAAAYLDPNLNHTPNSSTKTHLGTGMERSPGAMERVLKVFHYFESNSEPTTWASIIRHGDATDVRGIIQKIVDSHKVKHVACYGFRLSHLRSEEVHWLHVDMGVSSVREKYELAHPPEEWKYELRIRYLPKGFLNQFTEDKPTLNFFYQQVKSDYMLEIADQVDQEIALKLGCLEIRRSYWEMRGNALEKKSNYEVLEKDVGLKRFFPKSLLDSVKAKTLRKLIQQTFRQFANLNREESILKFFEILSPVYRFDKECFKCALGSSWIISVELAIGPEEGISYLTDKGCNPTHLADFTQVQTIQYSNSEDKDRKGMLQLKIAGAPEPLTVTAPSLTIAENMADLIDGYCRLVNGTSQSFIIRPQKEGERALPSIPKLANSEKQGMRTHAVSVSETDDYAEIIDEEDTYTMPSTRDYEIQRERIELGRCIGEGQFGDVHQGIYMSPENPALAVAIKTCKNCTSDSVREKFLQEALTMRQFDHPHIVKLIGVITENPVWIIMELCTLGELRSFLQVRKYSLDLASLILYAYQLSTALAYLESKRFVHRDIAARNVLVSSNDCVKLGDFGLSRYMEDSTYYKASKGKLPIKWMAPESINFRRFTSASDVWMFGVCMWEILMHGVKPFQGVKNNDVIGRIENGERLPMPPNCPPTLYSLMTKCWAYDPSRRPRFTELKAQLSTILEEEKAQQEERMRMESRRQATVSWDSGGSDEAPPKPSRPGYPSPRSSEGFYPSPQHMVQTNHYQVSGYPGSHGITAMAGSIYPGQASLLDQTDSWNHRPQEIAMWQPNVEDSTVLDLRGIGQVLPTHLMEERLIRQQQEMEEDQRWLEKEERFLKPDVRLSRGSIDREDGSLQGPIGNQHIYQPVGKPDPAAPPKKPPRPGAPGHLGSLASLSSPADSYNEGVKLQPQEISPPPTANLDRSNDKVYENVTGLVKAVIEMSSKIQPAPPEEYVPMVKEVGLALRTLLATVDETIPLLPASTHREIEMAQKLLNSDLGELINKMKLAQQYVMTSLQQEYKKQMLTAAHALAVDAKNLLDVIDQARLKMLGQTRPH

TNIK = target: T7, TNIK (Homo sapiens, UniProt Q9UKE5); conditions: n=1, read-out: Percent inhibition, TNIK
T7 construct: purchased DiscoverX (KINOMEscan)

TRKA = target: T8, TRKA (Homo sapiens, UniProt P04629); conditions: n=1, read-out: Percent inhibition, TRKA
T8 construct: purchased DiscoverX (KINOMEscan)
T8 sequence (P04629 33-796): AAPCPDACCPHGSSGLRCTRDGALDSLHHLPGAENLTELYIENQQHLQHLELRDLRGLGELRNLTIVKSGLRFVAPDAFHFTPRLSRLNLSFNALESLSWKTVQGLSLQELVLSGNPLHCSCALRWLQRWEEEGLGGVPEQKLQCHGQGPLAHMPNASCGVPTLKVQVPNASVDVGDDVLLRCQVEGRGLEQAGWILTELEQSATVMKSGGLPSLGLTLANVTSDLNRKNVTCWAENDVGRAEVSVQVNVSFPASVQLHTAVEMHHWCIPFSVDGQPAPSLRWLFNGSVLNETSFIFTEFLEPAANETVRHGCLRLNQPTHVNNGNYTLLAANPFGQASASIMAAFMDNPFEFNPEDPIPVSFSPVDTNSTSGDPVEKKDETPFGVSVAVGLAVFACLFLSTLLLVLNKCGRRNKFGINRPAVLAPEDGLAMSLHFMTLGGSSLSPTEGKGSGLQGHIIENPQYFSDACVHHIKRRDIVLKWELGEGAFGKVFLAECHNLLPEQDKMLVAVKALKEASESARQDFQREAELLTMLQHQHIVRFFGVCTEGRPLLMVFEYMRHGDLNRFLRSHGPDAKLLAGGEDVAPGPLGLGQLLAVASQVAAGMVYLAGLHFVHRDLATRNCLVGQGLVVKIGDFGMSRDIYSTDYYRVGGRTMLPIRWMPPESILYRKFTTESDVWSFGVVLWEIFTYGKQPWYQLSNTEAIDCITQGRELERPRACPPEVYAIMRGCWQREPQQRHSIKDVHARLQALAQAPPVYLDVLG

PRKG2 = target: T9, PRKG2 (Homo sapiens, UniProt Q13237); conditions: n=1, read-out: Percent inhibition, PRKG2
T9 construct: purchased DiscoverX (KINOMEscan)
T9 sequence (Q13237 1-762): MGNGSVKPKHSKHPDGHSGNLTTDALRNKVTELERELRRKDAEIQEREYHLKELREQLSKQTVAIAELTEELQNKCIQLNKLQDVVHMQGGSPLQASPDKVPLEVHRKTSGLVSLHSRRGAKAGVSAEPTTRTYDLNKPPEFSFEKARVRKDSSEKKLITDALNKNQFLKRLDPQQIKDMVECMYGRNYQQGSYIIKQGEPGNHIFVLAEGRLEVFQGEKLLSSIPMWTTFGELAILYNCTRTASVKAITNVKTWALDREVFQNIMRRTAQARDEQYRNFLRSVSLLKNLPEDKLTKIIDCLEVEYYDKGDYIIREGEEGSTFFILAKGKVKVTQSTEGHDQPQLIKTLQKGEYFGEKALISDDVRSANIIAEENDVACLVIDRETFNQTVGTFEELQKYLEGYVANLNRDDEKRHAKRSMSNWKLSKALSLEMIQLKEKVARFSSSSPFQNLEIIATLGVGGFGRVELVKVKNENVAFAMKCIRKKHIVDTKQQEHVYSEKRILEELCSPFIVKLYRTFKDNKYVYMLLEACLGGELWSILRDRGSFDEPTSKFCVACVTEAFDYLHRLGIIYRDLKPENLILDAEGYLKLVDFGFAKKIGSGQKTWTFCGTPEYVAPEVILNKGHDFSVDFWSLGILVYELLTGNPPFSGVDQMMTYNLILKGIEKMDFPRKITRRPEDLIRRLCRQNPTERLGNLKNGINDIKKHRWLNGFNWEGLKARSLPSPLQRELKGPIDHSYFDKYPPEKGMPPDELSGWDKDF

[1] = 10 µM, n=1, kinase JAK1(Kin.Dom.1), read-out: Percent inhibition JAK1(Kin.Dom.1)
[2] = 10 µM, n=1, kinase BIKE, read-out: Percent inhibition BIKE
[3] = 10 μM, n = 1, read-out: percent inhibition Aurora kinase A
[4] = 10 µM, n=1, kinase AURKA, read-out: Percent inhibition AURKA
[5] = 10 µM, n=1, kinase MERTK, read-out: Percent inhibition MERTK

T1 sequence (P23458 583-855 limits assumed): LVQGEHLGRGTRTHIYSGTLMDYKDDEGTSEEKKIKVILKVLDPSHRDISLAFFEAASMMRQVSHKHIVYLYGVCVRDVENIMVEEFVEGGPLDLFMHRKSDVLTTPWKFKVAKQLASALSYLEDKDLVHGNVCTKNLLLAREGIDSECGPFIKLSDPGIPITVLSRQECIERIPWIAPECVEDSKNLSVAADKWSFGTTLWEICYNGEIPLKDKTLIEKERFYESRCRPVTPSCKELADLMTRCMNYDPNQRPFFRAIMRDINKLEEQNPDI

Row | Structure (SMILES) | inhibition at 10 µM (JAK1(JH2); [1]) [%] | inhibition at 10 µM (BIKE; [2]) [%] | inhibition at 10 µM (FLT1) [%] | inhibition at 10 µM (Aurora kinase A; [3]) [%] | inhibition at 10 µM (Aurora kinase A; [4]) [%] | inhibition at 10 µM (MERTK; [5]) [%] | inhibition at 10 µM (PTK2) [%] | inhibition at 10 µM (TNIK) [%] | inhibition at 10 µM (TRKA) [%] | inhibition at 10 µM (PRKG2) [%] | inhibition at 10 µM (BIKE; 10 μM, n = 1, read-out: percent inhibition BIKE) [%] | inhibition at 10 µM (MERTK; 10 μM, n = 1, read-out: percent inhibition MERTK) [%] | inhibition of FLT1, in words (FLT1; kinome profiling, 10 μM) | inhibition at 10 µM (JAK1(JH2); 10 μM, n = 1, read-out: percent inhibition JAK1(JH2)) [%]
1 | CN1CCN(c2ccc(Nc3nccc(-c4cnn5ncccc45)n3)cc2C#N)CC1 [Compound 1] | 100 | 99.1 | 99.9 | > 90 | 96.7 | 98.7 | 87.2 | 98.9 | 91.3 | 0 | – | – | – | –
2 | COc1ccc(Nc2nccc(-c3cnn4ncccc34)n2)cc1 [Compound 2] | 95.5 | 96.5 | 99.5 | > 90 | 91.1 | 65.9 | 99.3 | 93.4 | 0 | 0 | – | – | – | –
3 | Cc1ccc(O)cc1Nc1ccnc(Nc2cccc(C(N)=O)c2)n1 [Compound 3] | 0 | 0 | 98.3 | – | 91.3 | 0 | 0 | 99.3 | 0 | 0 | – | – | – | –
4 | Cc1ccc(O)cc1N(C)c1ccnc(Nc2cccc(S(N)(=O)=O)c2)n1 [Compound 4] | 0 | 0 | 99.4 | – | 79.6 | 77.6 | 93.4 | 99.6 | 0 | 0 | – | – | – | –
5 | Fc1cccc(COc2ccc(Nc3ncnc4c3CN(CCN3CCOCC3)CC4)cc2Cl)c1 [Compound 6] | 0 | 0 | 0 | – | 0 | 0 | 0 | 0 | 0 | 0 | – | – | – | –
6 | COc1cc(Nc2nccc(-c3sc(N)nc3-c3cccc(NC(=O)c4c(F)cccc4F)c3)n2)cc(OC)c1OC [Compound 7] | 0 | 0 | 99.2 | – | 99.5 | 99.6 | 97 | 99.9 | 0 | 0 | – | – | – | –
7 | C[C@@H](Oc1cc(-c2cnc3ccccn23)sc1C(N)=O)c1ccccc1Cl [Compound 8] | 87.8 | 99.4 | 70 | – | 0 | 87.6 | 0 | 0 | 0 | 0 | – | – | – | –
8 | c1ccc(COc2cccc(-c3ccnc4[nH]ccc34)c2)cc1 [Compound 9] | 0 | 94.9 | 0 | – | 0 | 94.1 | 0 | 0 | 0 | 0 | ≥ 90 | ≥ 90 | – | –
9 | Clc1ccc(Nc2ncc(-c3ccccc3)s2)cc1 [Compound 10] | 0 | 0 | 0 | – | 0 | 0 | 0 | 0 | 0 | 0 | – | – | relatively weak inhibition | –
10 | Nc1ncc2c(-c3ccncc3)c[nH]c2n1 [Compound 11] | 99 | 0 | 0 | – | 0 | 0 | 0 | 93.7 | 0 | 0 | – | – | – | ≥ 99

Reference: article PMC9927415, “Tyrosine Kinase Inhibitors Display Potent Activity against Cryptosporidium parvum” (Microbiology Spectrum, 2022)
